Like-named read-outs stand apart in the source and are kept apart here.
Legend:
[1] = tested on: HepG2 cells, primary human hepatocytes; conditions: In vitro Assay; ref Garside 2014; cited from earlier work
[2] = tested on: HepG2; design: method as in Albrecht 2019; conditions: In vitro Assay; ref Albrecht 2019; cited from earlier work
[3] = cited from earlier work
[4] = tested on: rBsep; conditions: In vitro Assay; ref Dawson 2012; cited from earlier work
[5] = tested on: HepG2 cells; conditions: cited from earlier work; for Structural based (HCI): In vitro Assay, ref O'Brien 2006
[6] = ref Chen 2011; cited from earlier work
[7] = tested on: THLE or HepG2 cells, isolated mitochondria, BSEP; conditions: cited from earlier work; for Ro2 Hybrid HRM Score / Partition Hybrid HRM Score: In vitro Assay, ref Aleo 2019
[8] = tested on: human hepatocytes; conditions: cited from earlier work; for Structural based (HCI): In vitro Assay, ref Xu 2008
[9] = tested on: HepG2 C3A spheroid, BSEP, Glu/Gal in HepG2 cells, bioactivation; conditions: cited from earlier work
[10] = tested on: HepG2 cells; conditions: cited from earlier work; for Cluser analysis / Structural based (HCI): In vitro Assay, ref Persson 2013
[11] = tested on: PHH; conditions: cited from earlier work
[12] = tested on: PHH spheroids; conditions: cited from earlier work; for hLiMTs ATP <20 x Cmax: In vitro Assay, ref Vorrink 2018
[13] = tested on: RMPCC's; conditions: In vitro Assay; ref Khetani 2012; cited from earlier work
[14] = cited from earlier work; remark: listed apart in the source
[15] = tested on: PHH; conditions: In vitro Assay; ref Albrecht 2019; cited from earlier work
[16] = tested on: hLiMTs; experiment: Combined HCI (HCS) and cellular ATP 3D assay in hLiMTs
[17] = tested on: HepaRG spheroids; experiment: Combined HCI (HCS) and cellular ATP 3D assay in HepaRG spheroids
[18] = tested on: hLiMTs; conditions: cited from earlier work
[19] = tested on: hu-MPCC; conditions: In vitro Assay; ref Khetani 2012; cited from earlier work
[20] = tested on: THLE-Null and THLE-3A4 cells; conditions: In vitro Assay; ref Gustafsson 2014; cited from earlier work
[21] = tested on: rBsep; design: method as in Dawson 2012; conditions: In vitro Assay; ref Dawson 2012; cited from earlier work
[22] = tested on: isolated mouse liver mitochondria; conditions: In vitro Assay; ref Porceddu 2012; cited from earlier work
[23] = tested on: Upcyte human hepatocytes; conditions: In vitro Assay; ref Tolosa 2019; cited from earlier work
[24] = Modeled in vitro assays (cytotoxicity, mitochondrial dysfunction, BSEP), ref Aleo et al. 2019
[25] = In vitro Assay, ref Proctor 2017
[26] = Microtissue model structural based (HCI), combined HCS and ATP, MEC < 25 × Cmax.tot cut-off

## O=C1CC2(CCCC2)CC(=O)N1CCCCN1CCN(c2ncccn2)CC1 [buspirone, reference compound]
[1]
  Cluster 1-6 +VE Assay: +VE
[2]
  Cytotoxicity HepG2 48 hrs: -VE
[3]; Chen et al. 2016 or literature alignment, ref Chen et al. 2016
  Assigned DILI category: 1
[3]; […]
  In vivo DILI: -VE
[3]; ref Albrecht 2019
  In vivo DILI: -VE
[3]; ref Dawson 2012
  In vivo DILI: -VE
[3]; ref Garside 2014
  In vivo DILI: -VE
[3]; ref Gustafsson 2014
  In vivo DILI: -VE
[3]; ref Khetani 2012
  In vivo DILI: -VE
[3]; ref O'Brien 2006
  In vivo DILI: -VE
[3]; ref Persson 2013
  In vivo DILI: -VE
[3]; ref Proctor 2017
  In vivo DILI: -VE
[3]; ref Schadt 2015
  In vivo DILI: -VE
[3]; ref Vorrink 2018
  In vivo DILI: -VE
[3]; ref Williams 2019
  In vivo DILI: -VE
[3]; ref Xu 2008
  In vivo DILI: -VE
[4]
  Inhibition of rBsep cutoff<1& cmax u>.2: -VE
  Inhibition of rBsep cutoff<3: -VE
[5]
  Structural based (HCI): -VE
[5]; Structural based (HCI), HepG2, ref O'Brien et al. 2006
  DILI in vitro assay prediction, O'Brien (2006): -VE
[6]
  DILI Score (FDA) (1-8): 3
[7]
  Ro2 Hybrid HRM Score: -VE
[7]; [24]
  Rule of Two hybrid HRM Score ≥3, Aleo (2019): -VE
  Rule of Two hybrid HRM Score ≥8, Aleo (2019): -VE
[8]
  Structural based (HCI): -VE
[8]; Structural based (HCI), human hepatocytes, ref Xu et al. 2008
  DILI in vitro assay prediction, Xu (2008): -VE
[9]; Bayesian modeling, ref Williams et al. 2019
  Bayesian Machine Learning DILI prediction, Williams (2019): -VE
[9]; In vitro Assay, ref Williams 2019
  Bayesian Machine Learning: -VE
[10]
  Cluser analysis: -VE
  Structural based (HCI): -VE
[10]; Structural based (HCI), HepG2, ref Persson et al. 2013
  DILI in vitro assay prediction, Persson (2013): -VE
[11]; 2D PHH, ATP, IC50 threshold 100 µM, ref Proctor et al. 2017
  PHH/100uM, Proctor (2017): -VE
[11]; [25]
  PHH ATP <100uM: -VE
[12]
  hLiMTs ATP <20 x Cmax: -VE
[12]; PHH spheroids, ATP, 14 days, IC20 < 20 × Cmax.tot, ref Vorrink et al. 2018
  DILI in vitro assay prediction, Vorrink (2018): -VE
[13]
  RMPCC's: -VE
[14]; LTKB DILIrank category, ref Chen et al. 2016
  DILI severity category (Chen et al. [2016]): Ambiguous
[14]; human DILI classification, LTKB DILIrank, ref Chen et al. 2016
  DILI severity category (Chen 2016): Ambiguous
[14]; human DILI severity, ref Chen et al.
  DILI severity category: Ambiguous
[14]; ref Chen 2016
  DILI +VE (5-8), DILI -VE (-4): -VE
  DILI severity category: Ambiguous DILI-concern
[15]
  Cytotoxicity PHH 48 hrs: -VE
[16]; Homo sapiens, read-out: ATP endpoint AC50
  AC50: 5.15 µM
[16]; Homo sapiens, read-out: ATP endpoint MEC
  minimal effective concentration: 3.12 µM
[16]; [26]
  DILI prediction hLiMTs (HCS-MEC): -VE
[16]; hLiMTs, ATP endpoint, cut-off <25x Avg Cmax
  hLiMTs <25x Avg Cmax ATP: -ve
[16]; hLiMTs, ATP endpoint, cut-off <100x Avg Cmaxu
  hLiMTs <100x Avg Cmaxu ATP: -ve
[16]; hLiMTs, HCS endpoints, cut-off <25x Avg Cmax
  hLiMTs <25x Avg Cmax HCS: -ve
[16]; hLiMTs, HCS endpoints, cut-off <100x Avg Cmaxu
  hLiMTs <100x Avg Cmaxu HCS: -ve
[16]; hLiMTs, all endpoints (ATP and HCS), cut-off <25x Avg Cmax
  hLiMTs <25x Avg Cmax All: -ve
[16]; hLiMTs, all endpoints, Cmax max used
  hLiMTs Cmax max All: -ve
[16]; hLiMTs, all endpoints, Cmax min used
  hLiMTs Cmax min All: -ve
[16]; hLiMTs, all endpoints, cut-off <10 uM
  hLiMTs <10 uM All: +ve (<10 uM)
[16]; hLiMTs, all endpoints, cut-off <100x Avg Cmaxu
  hLiMTs <100x Avg Cmaxu All: -ve
[17]; HepaRG, ATP endpoint, cut-off <25x Avg Cmax
  HepaRG <25x Avg Cmax ATP: -ve
[17]; HepaRG, ATP endpoint, cut-off <100x Avg Cmaxu
  HepaRG <100x Avg Cmaxu ATP: -ve
[17]; HepaRG, HCS endpoints, cut-off <25x Avg Cmax
  HepaRG <25x Avg Cmax HCS: -ve
[17]; HepaRG, HCS endpoints, cut-off <100x Avg Cmaxu
  HepaRG <100x Avg Cmaxu HCS: -ve
[17]; HepaRG, all endpoints (ATP and HCS), cut-off <25x Avg Cmax
  HepaRG <25x Avg Cmax All: -ve
[17]; HepaRG, all endpoints, Cmax max used
  HepaRG Cmax max All: -ve
[17]; HepaRG, all endpoints, Cmax min used
  HepaRG Cmax min All: -ve
[17]; HepaRG, all endpoints, cut-off <10 uM
  HepaRG <10 uM All: -ve
[17]; HepaRG, all endpoints, cut-off <100x Avg Cmaxu
  HepaRG <100x Avg Cmaxu All: -ve
[17]; [26]
  DILI prediction HepaRG spheroids (HCS-MEC): -VE
[18]; [25]
  hLiMTs ATP <100uM: -VE
[18]; hLiMTs, ATP, IC50 threshold 100 µM, ref Proctor et al. 2017
  hLiMTs/100uM, Proctor (2017): -VE
[19]
  HMPCC's: -VE

## CCC(=O)O[C@]1(C(=O)CCl)[C@@H](C)C[C@H]2[C@@H]3CCC4=CC(=O)C=C[C@]4(C)[C@@]3(F)[C@@H](O)C[C@@]21C [clobetasol propionate]
[1]
  Cluster 1-6 +VE Assay: -VE
[3]; ref Dawson 2012
  In vivo DILI: -VE
[3]; ref Garside 2014
  In vivo DILI: -VE
[3]; ref Gustafsson 2014
  In vivo DILI: -VE
[20]
  THLE-Null: -VE
  THLE-Null/3A4: -VE
[21]
  Inhibition of rBsep cutoff<1& cmax u>.2: -VE
  Inhibition of rBsep cutoff<3: +VE

## Cc1onc(-c2ccccc2Cl)c1C(=O)N[C@@H]1C(=O)N2[C@@H]1SC(C)(C)[C@@H]2C(=O)O [cloxacillin]
[21]
  Inhibition of rBsep cutoff<1& cmax u>.2: -VE
  Inhibition of rBsep cutoff<3: -VE

## CC(C)(S)[C@@H](N)C(=O)O [d-penicillamine]
[3]; ref Dawson 2012
  In vivo DILI: +VE
[3]; ref Gustafsson 2014
  In vivo DILI: +VE
[3]; ref Porceddu 2012
  In vivo DILI: +VE
[20]
  THLE-Null: -VE
  THLE-Null/3A4: -VE
[22]
  in vitro data EC2<=1x Cmax: +VE
  in vitro data EC20<=2uM: -VE
[21]
  Inhibition of rBsep cutoff<1& cmax u>.2: -VE
  Inhibition of rBsep cutoff<3: -VE

## Cc1onc(-c2c(Cl)cccc2Cl)c1C(=O)N[C@@H]1C(=O)N2[C@@H]1SC(C)(C)[C@@H]2C(=O)O [dicloxacillin]
[1]
  Cluster 1-6 +VE Assay: +VE
[3]; ref Dawson 2012
  In vivo DILI: +VE
[3]; ref Garside 2014
  In vivo DILI: +VE
[3]; ref Gustafsson 2014
  In vivo DILI: +VE
[20]
  THLE-Null: -VE
  THLE-Null/3A4: -VE
[21]
  Inhibition of rBsep cutoff<1& cmax u>.2: -VE
  Inhibition of rBsep cutoff<3: +VE
[14]; ref Chen 2016
  DILI +VE (5-8), DILI -VE (-4): +VE
  DILI severity category: vLess-DILI-Concern

## CCC(=O)O[C@H]1[C@H](O[C@@H]2[C@@H](C)[C@H](O[C@H]3C[C@@](C)(OC)[C@@H](O)[C@H](C)O3)[C@@H](C)C(=O)O[C@H](CC)[C@@](C)(O)[C@H](O)[C@@H](C)C(=O)[C@H](C)C[C@@]2(C)O)O[C@H](C)C[C@@H]1N(C)C [erythromycin estolate]
[3]; ref Aleo 2019
  In vivo DILI: +VE
[3]; ref Dawson 2012
  In vivo DILI: +VE
[3]; ref Xu 2008
  In vivo DILI: +VE
[7]
  Partition Hybrid HRM Score: +VE
  Ro2 Hybrid HRM Score: +VE
[8]
  Structural based (HCI): +VE
[21]
  Inhibition of rBsep cutoff<1& cmax u>.2: +VE
  Inhibition of rBsep cutoff<3: +VE

## COc1ccc(Cl)cc1C(=O)NCCc1ccc(S(=O)(=O)NC(=O)NC2CCCCC2)cc1 [glibenclamide]
[1]
  Cluster 1-6 +VE Assay: +VE
[21]
  Inhibition of rBsep cutoff<1& cmax u>.2: +VE
  Inhibition of rBsep cutoff<3: +VE

## CC(C)NCC(O)c1ccc(O)c(O)c1 (centres unmarked) [isoproterenol]
[1]
  Cluster 1-6 +VE Assay: +VE
[23]
  Upcytes multi donor assay 14day data: -VE
[3]; ref Aleo 2019
  In vivo DILI: -VE
[3]; ref Dawson 2012
  In vivo DILI: -VE
[3]; ref Garside 2014
  In vivo DILI: -VE
[3]; ref Gustafsson 2014
  In vivo DILI: -VE
[3]; ref O'Brien 2006
  In vivo DILI: -VE
[3]; ref Persson 2013
  In vivo DILI: -VE
[3]; ref Tolosa 2019
  In vivo DILI: -VE
[3]; ref Vorrink 2018
  In vivo DILI: -VE
[3]; ref Xu 2008
  In vivo DILI: -VE
[4]
  Inhibition of rBsep cutoff<1& cmax u>.2: -VE
  Inhibition of rBsep cutoff<3: -VE
[5]
  Structural based (HCI): -VE
[7]
  Partition Hybrid HRM Score: -VE
  Ro2 Hybrid HRM Score: -VE
[20]
  THLE-Null: -VE
  THLE-Null/3A4: -VE
[8]
  Structural based (HCI): -VE
[10]
  Cluser analysis: -VE
  Structural based (HCI): -VE
[12]
  hLiMTs ATP <20 x Cmax: -VE
[14]; ref Chen 2016
  DILI +VE (5-8), DILI -VE (-4): -VE
  DILI severity category: vNo-DILI-Concern

## COc1ccc(C(=O)NCc2cccnc2)cc1C(=O)NCc1cccnc1 [picotamide]
[3]; ref Dawson 2012
  In vivo DILI: -VE
[3]; ref Gustafsson 2014
  In vivo DILI: -VE
[3]; ref O'Brien 2006
  In vivo DILI: -VE
[5]
  Structural based (HCI): +VE (lowest HCI endpoint IC50 (or in the absence of dose–response < 100 µM) < 30 × total human plasma exposure levels (Cmax.tot))
[21]
  Inhibition of rBsep cutoff<1& cmax u>.2: -VE
  Inhibition of rBsep cutoff<3: -VE

— PMC7395068, “The evolution of strategies to minimise the risk of human drug-induced liver injury (DILI) in drug discovery and development” (Archives of Toxicology, 2020)
